Data set [1] has as its target T1, Drosophila insulin receptor kinase domain (D-IRK) (Drosophila melanogaster, UniProt P09208).
T1 sequence (P09208 1358-1672): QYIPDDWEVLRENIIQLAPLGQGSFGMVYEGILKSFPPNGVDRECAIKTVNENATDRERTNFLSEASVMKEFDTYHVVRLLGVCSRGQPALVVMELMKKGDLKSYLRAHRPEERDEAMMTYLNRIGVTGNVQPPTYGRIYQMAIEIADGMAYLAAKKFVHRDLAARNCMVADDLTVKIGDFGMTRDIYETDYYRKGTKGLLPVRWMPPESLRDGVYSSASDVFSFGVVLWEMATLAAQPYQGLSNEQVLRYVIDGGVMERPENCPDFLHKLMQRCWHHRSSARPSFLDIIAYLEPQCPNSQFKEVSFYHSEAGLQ
The data set is described as follows: [γ-32P]-ATP phosphocellulose kinase assay. It counts as biochemical. Conditions: read-out: % inhibition at 10 μM.

The target of data set [2] is T1, Drosophila insulin receptor kinase domain (D-IRK). The data set is described as follows: [γ-32P]-ATP phosphocellulose kinase assay at […]. The class given is biochemical. Conditions: read-out: % inhibition at 10 μM.
Substrate in data set [3]: Nc1ncnc2c1ncn2[C@@H]1O[C@H](COP(=O)(O)OP(=O)(O)OP(=O)(O)O)[C@@H](O)[C@H]1O
The data set is described as follows: continuous spectrophotometric coupled assay, Km. It counts as biochemical, Drosophila melanogaster. Conditions: Mg2+ ATP-binding site.

What is called inhibition is the relative decrease from the control value, in per cent. What is called Km is the concentration of substrate that gives half-maximal velocity.

`CN[C@@H]1C[C@H]2O[C@@](C)([C@@H]1OC)n1c3ccccc3c3c4c(c5c6ccccc6n2c5c31)C(=O)NC4` [Staurosporine]: the inhibition at 10 µM in data set [1] is 98%.

`COc1cc2c(Nc3ccc(Br)cc3F)ncnc2cc1OCC1CCN(C)CC1` [Vandetanib]: the inhibition at 10 µM in data set [2] is ~70%.

B1: Drosophila insulin receptor kinase domain (D-IRK) (Drosophila melanogaster) (protein)
chain: QYIPDDWEVLRENIIQLAPLGQGSFGMVYEGILKSFPPNGVDRECAIKTVNENATDRERTNFLSEASVMKEFDTYHVVRLLGVCSRGQPALVVMELMKKGDLKSYLRAHRPEERDEAMMTYLNRIGVTGNVQPPTYGRIYQMAIEIADGMAYLAAKKFVHRDLAARNCMVADDLTVKIGDFGMTRDIYETDYYRKGTKGLLPVRWMPPESLRDGVYSSASDVFSFGVVLWEMATLAAQPYQGLSNEQVLRYVIDGGVMERPENCPDFLHKLMQRCWHHRSSARPSFLDIIAYLEPQCPNSQFKEVSFYHSEAGLQ
Consider B1, for which, in data set [3], the Km was 1350 ± 170 µM.

These data come from paper PMC11284340 (FASEB journal : official publication of the Federation of …, 2024).
